The term GI50 denotes the concentration giving 50% growth inhibition. Usually TGI stands for the concentration giving total growth inhibition. Read a low TGI as greater sensitivity of the cells.

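Values below derive from 48-hour exposures of cells grown in 96-well plates, with endpoints linearly interpolated between the two concentrations bracketing the appropriate inhibition level. GI50 marks 50% less growth. The concentration for full growth arrest is given as TGI.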

What all share (test): DTP human tumour cell line panel, 48 h
Test [1] has as its system COLO 205 colon.
Test [2] deals with HCC-2998 colon.
For test [3], the system named is IGROV1 ovarian.
Test [4] deals with NCI-H226 lung.
Test [5] concerns NCI-H23 lung.
Test [6] deals with NCI-H460 lung.
Test [7] concerns RPMI-8226 leukemia.
For test [8], the system named is SK-OV-3 ovarian.
Test [9] concerns SR leukemia.
In test [10] the test system is TK-10 renal.

With `S=C1SCN(Cc2ccccc2)CN1Cc1ccccc1`, the GI50 in test [1] was 3210 nM; in test [2], 21700 nM; in [3], 4390 nM; in [4], above 32600 nM; in [5], 12100 nM; in test [6] it was 31000 nM. For the same compound, the GI50 in test [7] was 119 nM; in test [8] it was 98700 nM; in test [9] it was 303 nM; in [10], 3680 nM. The TGI in [1] is 11600 nM; in [2] it was 37800 nM; in [3] it was 12200 nM; in test [4] it was above 50800 nM; in test [5], 42900 nM; in test [6], above 100000 nM. Further, the TGI in test [7] was 415 nM; in [8], above 100000 nM; in test [9], 3020 nM; in [10], 12600 nM.

On to `CCOC(=O)Nc1ccc2c(c1)C(=O)N(CC)c1ccccc1O2`, for which the GI50 in test [1] was 81.9 nM; in test [2], 309 nM; in [3], 265 nM; in test [4], 796 nM; in test [5] it was 542 nM; in test [6], 116 nM. For the same compound, the 50% growth inhibitory concentration (GI50) in test [7] is 126 nM; in test [8] it was 157 nM; in test [9], 47.9 nM; in [10], above 100000 nM. Moreover, the TGI in test [1] was 617 nM; in test [2], above 100000 nM; in test [3], above 100000 nM; in test [4], above 100000 nM; in test [5], above 100000 nM; in test [6], above 100000 nM. For the same compound, the TGI in [7], in test [8] and in [10] was above 100000 nM each time.

Turning to `COc1ccccc1NC(=O)C1=C(C)NC(C)=C(C(=O)Nc2ccccc2OC)C1c1ccccc1Cl`, the TGI in test [1], in test [2], in test [3], in test [4], in [5] and in test [6] was above 100000 nM each time. Moreover, the TGI in test [7], in [8], in [9] and in test [10] was above 100000 nM in each case.

Take `O=C(Nc1ccccc1Cl)c1ccc(NC2=C(Cl)C(=O)N(C3CCCCC3)C2=O)cc1`: the GI50 is 18700 nM in [1]; 3550 nM in test [2]; 6870 nM in test [3]; 9400 nM in test [4]; 4920 nM in test [5]; 19700 nM in [6]. The GI50 was 7350 nM in test [7], 27100 nM in test [8], 3030 nM in test [9] and 20600 nM in [10]. In addition, the TGI was 38300 nM in test [1]; 6050 nM in [2]; 23300 nM in [3]; 31800 nM in test [4]; 21200 nM in test [5]; 52100 nM in [6]. The TGI came to 34200 nM in test [7], 65200 nM in test [8], 7870 nM in test [9] and 44300 nM in [10].

For the compound `O=C1c2ccccc2C(=O)c2c1oc1c2c(=O)[nH]c2ccc(Cl)cc21`, the GI50 in test [1] was 10500 nM; in [2], 637 nM; in [3], 222 nM; in [4] it was 143 nM; in test [5], 355 nM; in test [6], 220 nM. For the same compound, the GI50 in [7] is 387 nM; in test [8], 348 nM; in test [9], 496 nM; in test [10] it was 379 nM. The TGI was 27600 nM in test [1]; 2550 nM in [2]; 746 nM in test [3]; 355 nM in test [4]; 1830 nM in [5]; 489 nM in test [6]. In addition, the TGI came to 2640 nM in test [7], 1780 nM in [8], 3940 nM in [9] and 1100 nM in test [10].

On to `CCOC(=O)c1c2c(n3ccc(NC(=O)CCN4CCCCC4)cc13)C(=O)c1ncccc1C2=O`, for which the GI50 was 1180 nM in test [1]; 1530 nM in test [2]; 348 nM in test [3]; 4320 nM in test [4]; 36.9 nM in test [5]; below 10 nM in [6]. For the same compound, the GI50 in [7] is 1410 nM; in test [8], 95.3 nM; in [9], below 10 nM; in test [10], 171 nM. The TGI was found to be 2750 nM in [1]; 3240 nM in test [2]; 2540 nM in test [3]; 11300 nM in test [4]; 2030 nM in test [5]; 443 nM in test [6]. The TGI in [7] is 4490 nM; in test [8], 18700 nM; in [9], 1200 nM; in test [10] it was 2250 nM.

Turning to `COc1cc(NS(C)(=O)=O)ccc1Cc1c2ccccc2nc2ccccc12`, the concentration for 50% growth inhibition (GI50) was 81.2 nM in [1]; 433 nM in test [2]; 414 nM in test [3]; 107 nM in test [4]; 137 nM in test [5]; below 12 nM in test [6]. The GI50 in test [7] was 377 nM; in test [8] it was 115 nM; in test [10], 228 nM. The total growth inhibition concentration (TGI) in [1] came to 2400 nM; in test [2], 2350 nM; in test [3] it was 2880 nM; in test [4], 462 nM; in test [5] it was 1480 nM; in test [6] it was 1060 nM. Besides, the TGI in test [7] worked out at 3280 nM; in [8], 1020 nM; in [9] it was 139 nM; in [10], 1450 nM.

Take `CC(C)=Cc1cccc2[nH]c(O)c(N=Nc3ccc(S(N)(=O)=O)cc3)c12`: the GI50 in test [1] was above 9930 nM; in [2], above 25000 nM; in test [3] it was above 25000 nM; in test [4], above 6160 nM; in [5], 7250 nM; in test [6] it was 1320 nM. The GI50 in [7] is 8160 nM; in [8], 14500 nM; in test [9] it was 593 nM; in test [10], 2290 nM. Also, the TGI was above 25000 nM in test [1]; above 25000 nM in [2]; above 25000 nM in [3]; above 25000 nM in [4]; above 25000 nM in test [5]; above 20500 nM in [6]. The TGI in [7], in test [8], in test [9] and in test [10] was above 25000 nM throughout.
